The results in this text go back to patent EP2799533A1, “Protease and inhibitor containing water-soluble films” (Novozymes A/S, priority 2013, dated 2014).

Common to all, as to type: biochemical
Assay [1] has as its system Mannaway. The assay is described as follows: Residual enzymatic activity of mannanase in water-soluble film after film production. The settings on record: Mannanase (Mannaway, 0.03% wt) in film with Savinase protease; 0.5% wt 4-FPBA; vs. amount of enzyme added; average of three analyses; film without 4-FPBA: 1%. The method, then: (§1) We prepared two different enzyme containing water-soluble films, as outlined in Table 1 below. The films were produced under normal film production conditions. Later, the films were analyzed to estimate the enzymatic activity remaining after the production process, i.e., the percentage of residual enzymatic activity in the final film product, as compared to the amount of enzyme added in the production process.
The mannanase used was Mannaway (Novozymes A/S, Denmark), which was added to obtain a final concentration of 0.03% wt active enzyme protein in both of the films.
(§2) The protease inhibitor used was 4-formyl-phenyl-boronic acid (4-FPBA), which was added to obtain a final concentration of 0.5% wt in one of the water-soluble films.
(§3) Since the humidity of the samples was not controlled, some of the absolute values from the analysis are above 100%. However, all film samples were treated identically and analyzed at the same time, and therefore the relative improvement by using the protease inhibitor can be calculated. Table 1. The data are based on an average of three analyses of each film.

In assay [2] the target is T1, Savinase (Lederbergia lenta, UniProt P29600).
T1 construct: purchased Novozymes A/S, Denmark
T1 sequence (P29600 1-269): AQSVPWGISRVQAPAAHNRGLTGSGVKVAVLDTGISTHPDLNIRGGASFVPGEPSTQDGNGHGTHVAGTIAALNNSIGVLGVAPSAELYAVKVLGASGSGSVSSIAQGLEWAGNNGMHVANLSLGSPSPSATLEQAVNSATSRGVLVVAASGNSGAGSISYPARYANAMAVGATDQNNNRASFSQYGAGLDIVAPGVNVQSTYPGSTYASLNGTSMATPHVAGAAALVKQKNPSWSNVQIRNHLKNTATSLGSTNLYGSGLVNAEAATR
As to the kind of experiment: Residual enzymatic activity of protease in water-soluble film after film production. The protocol:
as §1
The protease used for preparing the films was Savinase (Novozymes A/S, Denmark), which was added to obtain a final concentration of 1.1 % wt active enzyme protein in both of the water-soluble films.
as §2, §3

The test system of assay [3] is Stainzyme. As to the kind of experiment: Residual enzymatic activity of amylase in water-soluble film after film production. The method, then:
as §1
The amylase used was Stainzyme (Novozymes A/S, Denmark), which was added to obtain a final concentration of 0.1 % wt active enzyme protein in both of the films.
as §2, §3

With `O=Cc1ccc(B(O)O)cc1` [4-FPBA, 4-formyl-phenyl-boronic acid], the “Residual activity in film made with 4-FPBA” value in assay [1] came to 63%; in assay [2] (Protease (Savinase, 1.1 % wt) in film also holding amylase and mannanase, 0.5% wt 4-FPBA, vs. amount of enzyme added, average of three analyses, film without 4-FPBA: 87%), 93%; in assay [3] (Amylase (Stainzyme, 0.1 % wt) in film with Savinase protease, 0.5% wt 4-FPBA, vs. amount of enzyme added, average of three analyses, humidity not controlled, values above 100%, film without 4-FPBA: 106%), 114%. The “Relative improvement by using inhibitor” value is reported as 7% in assay [2] (Protease, film with 0.5% wt 4-FPBA vs. film without 4-FPBA) and 8% in assay [3] (Amylase, film with 0.5% wt 4-FPBA vs. film without 4-FPBA).
